Experimental data reported in patent publication US20070190188A1, “Controlling Toxicity of Aminoquinoline Compounds” (The University of Mississippi, priority 2005, published 2007).

Columns and labels:
Mouse Liver Microsomes = experiment: In vitro formation of methemoglobinemic metabolites with mouse liver microsomes and human erythrocytes; format: cell-based; conditions: for formation of methemoglobenemic metabolites, Control / formation of methemoglobenemic metabolites, Azithromycin / formation of methemoglobenemic metabolites, Erythromycin / formation of methemoglobenemic metabolites, Microsomes: Mouse Liver Microsomes; for formation of methemoglobenemic metabolites, Control: macrolide alone, no 8-aminoquinoline; for formation of methemoglobenemic metabolites, Azithromycin: 8-aminoquinoline with Azithromycin; for formation of methemoglobenemic metabolites, Erythromycin: 8-aminoquinoline with Erythromycin; for formation of methemoglobenemic metabolites, Microsomes: no macrolide; for % methemoglobin formation, Mouse Liver Microsomes: drug 100 μM, microsomes equivalent to 25 pmoles cytochrome P450, Mean ± S.D. of four
Protocol: (§1) In one aspect of the present invention, an in vitro assay is developed for evaluation of biotransformation reactions leading to generation of methemoglobinemic metabolites of 8-aminoquinolines. This method uses simultaneous incubation of a test compound with the hepatic microsomes or Baculosomes® (microsomes prepared from insect cells infected with recombinant baculovirus containing a cDNA insert for a specific human P450 isozyme and NADPH-P450 reductase) and human erythrocytes followed by determination of methemoglobin formation. This allows the unstable metabolites generated in situ to react with the human erythrocytes.

[1] = tested on: pooled human liver microsomes; experiment: In vitro formation of methemoglobinemic metabolites with pooled human liver microsomes and human erythrocytes; format: cell-based; conditions: for formation of methemoglobenemic metabolites, Control: macrolide alone, no 8-aminoquinoline
Protocol: as §1

human erythrocytes = experiment: In vitro methemoglobin formation, human erythrocytes, control without microsomes; format: cell-based; conditions: for % methemoglobin formed, Supersomes None: no Baculosomes, mean ± S.D. of four; for % methemoglobin formation, Control: no microsomes, drug 100 μM, Mean ± S.D. of four observations
Protocol: as §1

CYP 1A2 = biological target: T1, CYP 1A2 (Homo sapiens, UniProt P05177); experiment: Methemoglobinemic metabolite formation with Baculosomes, CYP 1A2; format: cell-based; conditions: mean ± S.D. of four
T1 construct: purchased; host or cells: insect cells infected with recombinant baculovirus
T1 sequence (P05177 2-516 limits assumed): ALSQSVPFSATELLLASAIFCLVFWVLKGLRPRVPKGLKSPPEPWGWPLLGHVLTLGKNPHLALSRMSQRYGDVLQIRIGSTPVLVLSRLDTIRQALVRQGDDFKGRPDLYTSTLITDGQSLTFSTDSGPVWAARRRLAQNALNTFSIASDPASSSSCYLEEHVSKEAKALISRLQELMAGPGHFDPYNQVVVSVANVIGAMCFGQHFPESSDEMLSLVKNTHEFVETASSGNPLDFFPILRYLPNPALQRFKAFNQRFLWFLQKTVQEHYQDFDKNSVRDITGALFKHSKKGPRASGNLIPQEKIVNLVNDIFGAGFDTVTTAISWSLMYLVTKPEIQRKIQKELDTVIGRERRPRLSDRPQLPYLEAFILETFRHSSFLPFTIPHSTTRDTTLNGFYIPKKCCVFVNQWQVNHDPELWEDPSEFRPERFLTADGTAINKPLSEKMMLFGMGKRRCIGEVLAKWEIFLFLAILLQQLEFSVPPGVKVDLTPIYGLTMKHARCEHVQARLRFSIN
Protocol: (§2) This method uses simultaneous incubation of a test compound with the hepatic microsomes or Baculosomes® (microsomes prepared from insect cells infected with recombinant baculovirus containing a cDNA insert for a specific human P450 isozyme and NADPH-P450 reductase) and human erythrocytes followed by determination of methemoglobin formation. This allows the unstable metabolites generated in situ to react with the human erythrocytes.

CYP 2C9 = biological target: T2, CYP 2C9 (Homo sapiens, UniProt P11712); experiment: Methemoglobinemic metabolite formation with Baculosomes, CYP 2C9; format: cell-based; conditions: mean ± S.D. of four
T2 construct: purchased; host or cells: insect cells infected with recombinant baculovirus
Protocol: as §2

CYP 2E1 = biological target: T3, CYP 2E1 (Homo sapiens, UniProt P05181); experiment: Methemoglobinemic metabolite formation with Baculosomes, CYP 2E1; format: cell-based; conditions: mean ± S.D. of four
T3 construct: purchased; host or cells: insect cells infected with recombinant baculovirus
Protocol: as §2

CYP 2A6 = biological target: T4, CYP 2A6 (Homo sapiens, UniProt P11509); experiment: Methemoglobinemic metabolite formation with Baculosomes, CYP 2A6; format: cell-based; conditions: mean ± S.D. of four
T4 construct: purchased; host or cells: insect cells infected with recombinant baculovirus
T4 sequence (P11509 1-494): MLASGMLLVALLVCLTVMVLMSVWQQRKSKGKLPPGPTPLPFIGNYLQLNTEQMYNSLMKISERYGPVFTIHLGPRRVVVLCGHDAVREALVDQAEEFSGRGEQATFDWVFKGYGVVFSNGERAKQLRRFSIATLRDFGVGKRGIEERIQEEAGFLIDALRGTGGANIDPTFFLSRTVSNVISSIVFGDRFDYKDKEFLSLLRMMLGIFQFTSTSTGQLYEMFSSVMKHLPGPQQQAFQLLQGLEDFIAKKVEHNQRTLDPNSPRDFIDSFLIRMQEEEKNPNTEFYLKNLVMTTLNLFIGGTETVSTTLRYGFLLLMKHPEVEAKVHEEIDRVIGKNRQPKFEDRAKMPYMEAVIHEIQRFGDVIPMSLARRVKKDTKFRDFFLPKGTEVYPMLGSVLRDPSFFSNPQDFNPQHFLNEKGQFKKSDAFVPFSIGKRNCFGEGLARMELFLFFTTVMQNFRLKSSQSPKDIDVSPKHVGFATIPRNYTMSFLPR
Protocol: as §2

CYP 2C8 = biological target: T5, CYP 2C8 (Homo sapiens, UniProt P10632); experiment: Methemoglobinemic metabolite formation with Baculosomes, CYP 2C8; format: cell-based; conditions: mean ± S.D. of four
T5 construct: purchased; host or cells: insect cells infected with recombinant baculovirus
T5 sequence (P10632 1-490): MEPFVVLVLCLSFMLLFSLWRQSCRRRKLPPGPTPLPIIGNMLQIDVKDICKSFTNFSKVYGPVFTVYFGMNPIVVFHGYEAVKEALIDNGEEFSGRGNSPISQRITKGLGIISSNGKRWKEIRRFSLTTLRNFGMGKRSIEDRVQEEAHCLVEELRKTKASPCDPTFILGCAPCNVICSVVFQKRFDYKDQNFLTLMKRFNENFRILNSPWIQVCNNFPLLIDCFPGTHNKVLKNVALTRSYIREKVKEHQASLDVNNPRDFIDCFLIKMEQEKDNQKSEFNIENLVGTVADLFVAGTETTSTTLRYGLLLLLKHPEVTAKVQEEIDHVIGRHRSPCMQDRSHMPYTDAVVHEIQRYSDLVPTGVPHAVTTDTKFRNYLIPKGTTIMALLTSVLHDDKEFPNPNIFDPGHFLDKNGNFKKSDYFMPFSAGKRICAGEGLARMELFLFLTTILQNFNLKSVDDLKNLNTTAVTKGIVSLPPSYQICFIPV
Protocol: as §1

CPY 2B6 = biological target: T6, CPY 2B6 (Homo sapiens, UniProt P20813); experiment: Methemoglobinemic metabolite formation with Baculosomes, CYP 2B6; format: cell-based; conditions: mean ± S.D. of four
T6 construct: purchased; host or cells: insect cells infected with recombinant baculovirus
T6 sequence (P20813 1-491): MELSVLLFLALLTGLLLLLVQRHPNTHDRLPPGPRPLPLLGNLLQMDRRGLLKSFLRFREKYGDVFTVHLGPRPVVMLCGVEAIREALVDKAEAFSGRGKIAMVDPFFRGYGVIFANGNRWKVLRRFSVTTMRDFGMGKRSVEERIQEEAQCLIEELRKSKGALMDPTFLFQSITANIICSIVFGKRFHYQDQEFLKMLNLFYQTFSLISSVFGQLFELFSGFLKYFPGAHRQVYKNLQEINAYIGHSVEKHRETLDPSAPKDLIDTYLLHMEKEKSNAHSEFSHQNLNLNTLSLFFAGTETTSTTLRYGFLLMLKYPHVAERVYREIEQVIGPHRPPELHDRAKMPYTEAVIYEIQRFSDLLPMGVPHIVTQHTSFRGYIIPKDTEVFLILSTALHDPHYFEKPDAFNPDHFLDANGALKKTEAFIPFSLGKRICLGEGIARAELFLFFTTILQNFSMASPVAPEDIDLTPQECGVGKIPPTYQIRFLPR
Protocol: as §2

CYP 2C19 = biological target: T7, CYP 2C19 (Homo sapiens, UniProt P33261); experiment: Methemoglobinemic metabolite formation with Baculosomes, CYP 2C19; format: cell-based; conditions: mean ± S.D. of four
T7 construct: purchased; host or cells: insect cells infected with recombinant baculovirus
Protocol: as §2

CYP 3A4 = biological target: T8, CYP 3A4 (Homo sapiens, UniProt P08684); experiment: Methemoglobinemic metabolite formation with Baculosomes, CYP 3A4; format: cell-based
T8 construct: purchased; host or cells: insect cells infected with recombinant baculovirus
Protocol: as §1

CYP 2D6 = biological target: T9, CYP 2D6 (Homo sapiens, UniProt P10635); experiment: Methemoglobinemic metabolite formation with Baculosomes, CYP 2D6; format: cell-based; conditions: mean ± S.D. of four
T9 construct: purchased; host or cells: insect cells infected with recombinant baculovirus
Protocol: as §2

Plasmodium berghei = experiment: In vivo antimalarial evaluation in Plasmodium berghei-mouse malaria model; conditions: TAO i.p. 50 mg/kg × 3 once daily alone; for (%) Parasitemia: mean in brackets
Text: One concern with this method of controlling 8-aminoquinoline toxicity is that the inhibition metabolism of the drug may impair its antiparasitic efficacy. […] Thus treatment of the individuals with NPC1161B along with an inhibitor of CYP3A4 should not compromise the therapeutic efficiency of NPC1161B.

T8 sequence (P08684 2-503 limits assumed): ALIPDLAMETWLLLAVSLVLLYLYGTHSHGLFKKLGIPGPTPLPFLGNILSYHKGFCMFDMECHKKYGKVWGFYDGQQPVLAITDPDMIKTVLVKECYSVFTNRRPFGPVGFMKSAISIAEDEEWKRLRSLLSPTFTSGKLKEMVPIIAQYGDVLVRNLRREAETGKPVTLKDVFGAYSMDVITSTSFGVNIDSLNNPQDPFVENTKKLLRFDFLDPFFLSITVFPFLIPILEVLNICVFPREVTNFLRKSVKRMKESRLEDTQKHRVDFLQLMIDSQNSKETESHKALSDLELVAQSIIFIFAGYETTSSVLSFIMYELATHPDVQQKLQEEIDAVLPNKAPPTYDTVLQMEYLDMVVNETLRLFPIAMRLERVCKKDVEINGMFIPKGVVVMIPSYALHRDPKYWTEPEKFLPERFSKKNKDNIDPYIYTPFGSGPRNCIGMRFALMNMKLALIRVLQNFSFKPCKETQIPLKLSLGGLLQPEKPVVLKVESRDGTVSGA
T2 sequence (P11712 whole entry): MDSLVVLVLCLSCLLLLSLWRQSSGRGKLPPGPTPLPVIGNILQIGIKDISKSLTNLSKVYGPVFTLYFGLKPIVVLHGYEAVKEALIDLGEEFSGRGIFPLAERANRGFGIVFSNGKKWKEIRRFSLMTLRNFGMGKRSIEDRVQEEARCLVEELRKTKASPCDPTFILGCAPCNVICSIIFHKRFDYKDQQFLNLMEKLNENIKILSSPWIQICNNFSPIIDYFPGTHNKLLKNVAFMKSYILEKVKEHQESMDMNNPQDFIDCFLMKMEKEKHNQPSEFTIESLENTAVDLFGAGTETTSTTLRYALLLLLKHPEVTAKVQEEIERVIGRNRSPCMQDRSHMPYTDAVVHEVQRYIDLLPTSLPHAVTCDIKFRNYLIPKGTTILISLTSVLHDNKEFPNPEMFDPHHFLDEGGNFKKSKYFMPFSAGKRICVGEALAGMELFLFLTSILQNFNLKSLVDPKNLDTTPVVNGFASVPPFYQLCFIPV
T9 sequence (P10635 whole entry): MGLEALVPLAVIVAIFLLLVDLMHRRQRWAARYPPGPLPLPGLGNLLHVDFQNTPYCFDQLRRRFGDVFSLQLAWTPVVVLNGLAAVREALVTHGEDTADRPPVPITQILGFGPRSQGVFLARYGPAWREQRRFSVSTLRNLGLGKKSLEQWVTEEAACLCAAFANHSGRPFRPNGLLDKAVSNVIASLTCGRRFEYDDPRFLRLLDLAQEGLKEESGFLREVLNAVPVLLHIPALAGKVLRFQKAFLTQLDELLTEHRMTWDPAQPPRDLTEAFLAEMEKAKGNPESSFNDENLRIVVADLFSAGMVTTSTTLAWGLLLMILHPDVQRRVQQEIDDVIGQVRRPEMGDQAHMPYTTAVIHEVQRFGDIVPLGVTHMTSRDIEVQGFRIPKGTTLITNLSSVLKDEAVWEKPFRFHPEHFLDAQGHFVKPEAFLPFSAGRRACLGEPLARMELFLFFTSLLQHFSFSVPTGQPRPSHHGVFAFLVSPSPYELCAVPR
T7 sequence (P33261 whole entry): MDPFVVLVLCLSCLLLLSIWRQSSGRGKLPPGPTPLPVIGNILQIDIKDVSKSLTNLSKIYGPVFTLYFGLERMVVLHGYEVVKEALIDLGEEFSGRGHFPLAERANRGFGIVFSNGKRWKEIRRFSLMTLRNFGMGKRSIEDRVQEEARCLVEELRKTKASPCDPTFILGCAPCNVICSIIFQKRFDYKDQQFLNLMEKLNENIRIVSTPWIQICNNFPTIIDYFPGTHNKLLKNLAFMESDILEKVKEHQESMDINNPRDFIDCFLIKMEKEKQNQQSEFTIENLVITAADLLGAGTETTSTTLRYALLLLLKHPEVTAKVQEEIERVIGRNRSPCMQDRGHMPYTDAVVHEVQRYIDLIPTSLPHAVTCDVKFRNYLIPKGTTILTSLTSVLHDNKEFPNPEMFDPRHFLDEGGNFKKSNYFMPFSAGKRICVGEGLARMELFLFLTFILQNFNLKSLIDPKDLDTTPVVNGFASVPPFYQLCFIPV
T3 sequence (P05181 whole entry): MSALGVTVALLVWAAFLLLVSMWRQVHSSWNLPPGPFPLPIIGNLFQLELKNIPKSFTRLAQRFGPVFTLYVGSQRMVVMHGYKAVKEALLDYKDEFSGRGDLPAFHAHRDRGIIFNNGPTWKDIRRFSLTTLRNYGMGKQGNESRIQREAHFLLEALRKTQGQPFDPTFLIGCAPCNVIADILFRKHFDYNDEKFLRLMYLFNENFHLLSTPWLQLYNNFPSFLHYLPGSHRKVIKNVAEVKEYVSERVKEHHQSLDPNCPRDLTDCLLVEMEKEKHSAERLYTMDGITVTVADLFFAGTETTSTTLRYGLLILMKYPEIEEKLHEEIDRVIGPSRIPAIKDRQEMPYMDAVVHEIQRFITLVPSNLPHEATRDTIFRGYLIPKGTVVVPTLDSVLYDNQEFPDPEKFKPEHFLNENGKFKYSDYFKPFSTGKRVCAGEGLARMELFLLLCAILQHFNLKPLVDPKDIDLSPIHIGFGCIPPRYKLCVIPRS

CC[C@H]1OC(=O)[C@H](C)[C@@H](O[C@H]2C[C@@](C)(OC)[C@@H](O)[C@H](C)O2)[C@H](C)[C@@H](O[C@@H]2O[C@H](C)C[C@H](N(C)C)[C@H]2O)[C@](C)(O)C[C@@H](C)C(=O)[C@H](C)[C@@H](O)[C@]1(C)O [Erythromycin, erythromycin, reference compound]
formation of methemoglobenemic metabolites, Control (Mouse Liver Microsomes): 6.230 ± 1.009
formation of methemoglobenemic metabolites, Control ([1]; pooled human Liver Microsomes): 0

CC[C@H]1OC(=O)[C@H](C)[C@@H](O[C@H]2C[C@@](C)(OC)[C@@H](O)[C@H](C)O2)[C@H](C)[C@@H](O[C@@H]2O[C@H](C)C[C@H](N(C)C)[C@H]2O)[C@](C)(O)C[C@@H](C)CN(C)[C@H](C)[C@@H](O)[C@]1(C)O [Azithromycin, reference compound]
formation of methemoglobenemic metabolites, Control (Mouse Liver Microsomes): 6.598 ± 0.505
formation of methemoglobenemic metabolites, Control ([1]; pooled human Liver Microsomes): 0

COc1cc(NC(C)CCCN)c2ncccc2c1 (stereo not shown) [Primaquine, primaquine, reference compound]
formation of methemoglobenemic metabolites, Azithromycin (Mouse Liver Microsomes): 11.800 ± 2.862
formation of methemoglobenemic metabolites, Erythromycin (Mouse Liver Microsomes): 23.770 ± 5.826
formation of methemoglobenemic metabolites, Microsomes (Mouse Liver Microsomes): 36.660 ± 2.612
% methemoglobin formation, Mouse Liver Microsomes (Mouse Liver Microsomes): 36.660 ± 2.612%
% methemoglobin formed, Supersomes None (human erythrocytes): 1.465 ± 0.183%
% methemoglobin formation, Control (human erythrocytes): 1.465 ± 0.414%

COc1cc(N[C@@H](C)CCCN)c2nccc(C)c2c1Oc1ccc(Cl)c(Cl)c1 [NPC1161A]
% methemoglobin formed, CYP 1A2 (CYP 1A2): 2.060 ± 0.185%
% methemoglobin formed, CYP 2C9 (CYP 2C9): 0.070 ± 0.130%
% methemoglobin formed, CYP 2E1 (CYP 2E1): 8.703 ± 0.956%
% methemoglobin formed, CYP 2A6 (CYP 2A6): 2.775 ± 0.175%
formation of methemoglobenemic metabolites, Azithromycin (Mouse Liver Microsomes): 10.850 ± 2.134
formation of methemoglobenemic metabolites, Erythromycin (Mouse Liver Microsomes): 9.375 ± 0.686
formation of methemoglobenemic metabolites, Microsomes (Mouse Liver Microsomes): 17.790 ± 1.460
% methemoglobin formation, Mouse Liver Microsomes (Mouse Liver Microsomes): 17.790 ± 1.460%
% methemoglobin formed, CYP 2C8 (CYP 2C8): 1.893 ± 0.275%
% methemoglobin formed, CPY 2B6 (CPY 2B6): 5.465 ± 0.625%
% methemoglobin formation, Pooled Human liver Microsomes ([1]; drug 100 μM, microsomes equivalent to 25 pmoles cytochrome P450, Mean ± S.D. of four): 12.510 ± 1.890%
formation of methemoglobenemic metabolites, Azithromycin ([1]; pooled human Liver Microsomes, 8-aminoquinoline with Azithromycin): 10.595 ± 0.842
formation of methemoglobenemic metabolites, Erythromycin ([1]; pooled human Liver Microsomes, 8-aminoquinoline with Erythromycin): 6.720 ± 1.011
formation of methemoglobenemic metabolites, Microsomes ([1]; pooled human Liver Microsomes, no macrolide): 12.860 ± 1.994
% methemoglobin formed, CYP 2C19 (CYP 2C19): 1.733 ± 0.327%
% methemoglobin formed, Cimetidine (CYP 3A4; 3A4 Baculosomes, 8-aminoquinoline 100 μM with Cimetidine 100 μM): 11.905 ± 1.420%
% methemoglobin formed, Erythromycin (CYP 3A4; 3A4 Baculosomes, 8-aminoquinoline 100 μM with Erythromycin 100 μM): 15.288 ± 2.359%
% methemoglobin formed, Ketoconazole (CYP 3A4; 3A4 Baculosomes, 8-aminoquinoline 100 μM with Ketoconazole 100 μM): 19.010 ± 0.870%
% methemoglobin formed, Troleandomycin (CYP 3A4; 3A4 Baculosomes, 8-aminoquinoline 100 μM with Troleandomycin 100 μM): 16.743 ± 1.401%
% methemoglobin formed, inhibitor None (CYP 3A4; 3A4 Baculosomes, 8-aminoquinoline 100 μM, no inhibitor): 20.925 ± 0.502%
% methemoglobin formed, CYP 3A4 (CYP 3A4; Baculosomes, mean ± S.D. of four): 15.320 ± 0.504%
methemoglobin toxicity generated by CYP 3A4, comparison among the three 8-aminoquinolines (CYP 3A4; FIG. 5): almost similar methemoglobin toxicity
% methemoglobin formed, CYP 2D6 (CYP 2D6): 17.200 ± 1.088%
% methemoglobin formed, Supersomes None (human erythrocytes): 2.138 ± 0.624%
% methemoglobin formation, Control (human erythrocytes): 2.138 ± 0.624%

CO[C@H]1C[C@H](O[C@H]2[C@H](C)[C@@H](O[C@@H]3O[C@H](C)C[C@H](N(C)C)[C@H]3OC(C)=O)[C@@H](C)C[C@@]3(CO3)C(=O)[C@H](C)[C@@H](OC(C)=O)[C@@H](C)[C@@H](C)OC(=O)[C@@H]2C)O[C@@H](C)[C@@H]1OC(C)=O [Troleandomycin, troleandomycin, reference compound]
MST (Plasmodium berghei): 15 days
(%) Parasitemia (Plasmodium berghei; day 7 p.i.): 13.3/18.3/25.5/16.5/13.1 (17.3) %
(%) Parasitemia (Plasmodium berghei; day 10 p.i.): 22.7/34.5/32.0/32.1/24.3 (29.1) %
(%) Parasitemia (Plasmodium berghei; day 14 p.i.): 31.5/41.5/28.5/49.3/49.3 (40.0) %
deaths (Plasmodium berghei; number of deaths/day): 5/15
